Laboratory results as given in US20220273008A1, “PLANT BODY CONTAINING NOVEL STEVIOL GLYCOSIDE” (SUNTORY HOLDINGS LIMITED, priority 2019, published 2022).
“And” between values parts separate entries of the source, which are not always exact repeats. Equal values may be shown once.

Experiments:
[1] = Evaluation of sweetness level: choosing the sugar-added sample of equivalent sweetness intensity, trained panelists; assay type: in vivo, human; details: for Sweetness level, Average / Sweetness level, Highest / Sweetness level, Lowest: 48 mg in 400 mL pure water vs sugar samples of Brix 3.0 to 5.0, relative to sugar; for sweetness compared with sugar (in words): in vivo
Procedure: In order to evaluate the sweetness levels of Novel steviol glycosides A and B, samples were prepared by adding sugar to pure water to give Brix of 3.0 to 5.0 in 0.5 increments. Compounds 15 and 17 obtained by the chemical syntheses were used as Novel steviol glycosides A and B, respectively, where 48 mg of each sample was dissolved in 400 mL of pure water to be tested. In addition, samples were also prepared for comparison by dissolving 48 mg of each of Reb.A, Reb.D and Reb.M in 400 mL of pure water.

[2] = Sensory evaluation of taste quality of beverage samples (sweetness on-set, lingering sweet aftertaste, bitterness, lingering bitter aftertaste); assay type: in vivo, human; details: beverage samples in pure water adjusted to Brix 5 in terms of sugar, compared with Reb.A, Reb.D, Reb.M and sugar
From the text: (§1) In order to evaluate the taste quality of various steviol glycosides, Reb.A, Reb.D, Reb.M, sugar and Novel steviol glycoside A (Compound 15) were each added to pure water to prepare beverage samples. All of the beverage samples were adjusted to have final sweetness level (Brix) of 5 in terms of sugar (sucrose), and thus the sweetness levels of Reb.A, Reb.D, Reb.M and Novel steviol glycoside A (Compound 15) were 312, 317, 341 and 354, respectively.
(§2) The resulting beverage samples were subjected to sensory evaluation for rating the attributes, which were sweetness on-set, lingering sweet aftertaste, bitterness and lingering bitter aftertaste. Panelists who had been trained about sensory attributes of sweeteners (7 members) evaluated based on the following evaluation criteria. For each evaluation item, the steviol glycosides were scored in 0.5 increments provided that the score of sugar was 3. A higher score represents faster sweetness on-set, shorter lingering sweet aftertaste, less bitterness and shorter lingering bitter aftertaste. The evaluation scores shown in the diagram are the average scores of the scores from the 8 panelists.
as §1, with “glycoside B” for “glycoside A”, “(Compound 17)” for “(Compound 15)”, “were 288, 310, 324” for “were 312, 317, 341”, “and 250,” for “and 354,”
as §2, with “shorter lingering aftertaste. The” for “shorter lingering bitter aftertaste. The”, “from the 6 panelists.” for “from the 8 panelists.”

[3] = background art; cited from earlier work
[4] = evaluation of Novel steviol glycoside A (Table 10), 7 panelists
[5] = evaluation of Novel steviol glycoside B (Table 11)

Row | Compound | Sweetness level, Average [1, 4] | Sweetness level, Highest [1, 4] | Sweetness level, Lowest [1, 4] | Sweetness level, Average [1, 5] | Sweetness level, Highest [1, 5] | Sweetness level, Lowest [1, 5] | sweetness compared with sugar (in words) [1] | bitterness [2] | sweetness, times the sweetness of sugar [3] | other results
1 | C=C1C[C@@]23CC[C@H]4[C@@](C)(CCC[C@@]4(C)C(=O)O[C@@H]4O[C@H](CO)[C@@H](O)[C@H](O)[C@H]4O[C@@H]4O[C@H](CO)[C@@H](O)[C@H](O)[C@H]4O)[C@@H]2CC[C@]1(O[C@@H]1O[C@H](CO)[C@@H](O)[C@H](O[C@@H]2O[C@H](CO)[C@@H](O)[C@H](O)[C@H]2O)[C@H]1O[C@@H]1O[C@H](CO)[C@@H](O)[C@H](O)[C@H]1O)C3 [RebD, rebaudioside D] | 317.9 | 398.0 | 253.5 | 310.3 | 393.6 | 241.1 | – | – | – | Sweetness level, Average ([1]; evaluation of Novel steviol glycoside A (Table 10), 7 panelists, listed as Reb.D): 317; Sweetness level, Average ([1]; evaluation of Novel steviol glycoside B (Table 11), listed as Reb.D): 310
2 | C=C1CC23CCC4C(C)(C(=O)OC5OC(CO)C(O)C(O)C5OC5OCC(O)C(O)C5O)CCCC4(C)C2CCC1(OC1OC(CO)C(O)C(OC2OC(CO)C(O)C(O)C2O)C1OC1OC(CO)C(O)C(O)C1O)C3 (stereo not drawn) [Novel steviol glycoside A] | 354 and 354.1 | 415.8 | 319.0 | – | – | – | sweeter than sugar | less bitterness as compared to other components including sugar | – | sweetness level higher in average than that of sugar ([1]; average of panelists, 48 mg in 400 mL pure water): about 354 times; lingering bitter aftertaste [2]: shorter lingering bitter aftertaste as compared to other glycosides; lingering sweet aftertaste [2]: less sweetness; bitterness ([2]; listed as Glycoside A): weaker bitterness than other components including sugar; lingering bitter aftertaste ([2]; listed as Glycoside A): less lingering sweet and bitter aftertastes; lingering sweet aftertaste ([2]; listed as Glycoside A): less lingering sweet and bitter aftertastes
3 | C=C1C[C@@]23CC[C@H]4[C@@](C)(CCC[C@@]4(C)C(=O)O[C@@H]4O[C@H](CO)[C@@H](O)[C@H](O)[C@H]4O)[C@@H]2CC[C@]1(O[C@@H]1O[C@H](CO)[C@@H](O)[C@H](O)[C@H]1O[C@@H]1O[C@H](CO)[C@@H](O)[C@H](O)[C@H]1O)C3 [Stevioside] | – | – | – | – | – | – | – | – | 250-300 times | –
4 | C=C1CC23CCC4C(C)(C(=O)OC5OC(CO)C(O)C(OC6OC(CO)C(O)C(O)C6O)C5OC5OC(CO)C(O)C(O)C5O)CCCC4(C)C2CCC1(OC1OC(CO)C(O)C(OC2OC(CO)C(O)C(O)C2O)C1OC1OCC(O)C(O)C1O)C3 (stereo not drawn) [Novel steviol glycoside B] | – | – | – | – | – | – | sweeter than sugar | weaker bitterness than other steviol glycosides | – | –
5 | C=C1C[C@@]23CC[C@H]4[C@@](C)(CCC[C@@]4(C)C(=O)O[C@@H]4O[C@H](CO)[C@@H](O)[C@H](O)[C@H]4O)[C@@H]2CC[C@]1(O[C@@H]1O[C@H](CO)[C@@H](O)[C@H](O[C@@H]2O[C@H](CO)[C@@H](O)[C@H](O)[C@H]2O)[C@H]1O[C@@H]1O[C@H](CO)[C@@H](O)[C@H](O)[C@H]1O)C3 [Reb A, rebaudioside A] | 312.0 | 398.9 | 243.0 | 288.3 | 329.2 | 239.5 | – | – | 350-450 times | Sweetness level, Average ([1]; evaluation of Novel steviol glycoside A (Table 10), 7 panelists, listed as Reb.A): 312; Sweetness level, Average ([1]; evaluation of Novel steviol glycoside B (Table 11), listed as Reb.A): 288
6 | C=C1C[C@@]23CC[C@H]4[C@@](C)(CCC[C@@]4(C)C(=O)O[C@@H]4O[C@H](CO)[C@@H](O)[C@H](O[C@@H]5O[C@H](CO)[C@@H](O)[C@H](O)[C@H]5O)[C@H]4O[C@@H]4O[C@H](CO)[C@@H](O)[C@H](O)[C@H]4O)[C@@H]2CC[C@]1(O[C@@H]1O[C@H](CO)[C@@H](O)[C@H](O[C@@H]2O[C@H](CO)[C@@H](O)[C@H](O)[C@H]2O)[C@H]1O[C@@H]1O[C@H](CO)[C@@H](O)[C@H](O)[C@H]1O)C3 [RebM, rebaudioside M] | 341.1 | 352.2 | 286.0 | 323.6 | 373.4 | 236.5 | – | – | – | Sweetness level, Average ([1]; evaluation of Novel steviol glycoside A (Table 10), 7 panelists, listed as Reb.M): 341; Sweetness level, Average ([1]; evaluation of Novel steviol glycoside B (Table 11), listed as Reb.M): 324
